# From ChEMBL document CHEMBL3046822, “Synthesis, antiplatelet aggregation activity, and molecular modeling study of novel substituted-piperazine analogues” (2011)
# Activity calls are given as the source filed them. No cut-off for these calls is given here.
# Legend:
# [1] = Antiaggregating activity in Homo sapiens (human) platelet rich plasma assessed as ristocetin-induced platelet aggregation at 0.6 uM incubated for 4 min prior to ristocetin-induction measured for 5.5 min by turbidometric analysis (reference value: 65 to 99%); type: functional
# [2] = Antiaggregating activity in Homo sapiens (human) platelet rich plasma assessed as disaggregation of arachidonic acid-induced platelet aggregation at 0.06 uM incubated for 4 min prior to arachidonic acid-induction measured for 5.5 min by turbidometric analysis relative to control; type: functional
# [3] = Antiaggregating activity in Homo sapiens (human) platelet rich plasma assessed as ristocetin-induced platelet aggregation at 1 uM incubated for 4 min prior to ristocetin-induction measured for 5.5 min by turbidometric analysis (reference value: 65 to 99%); type: functional
# [4] = Antiaggregating activity in Homo sapiens (human) platelet rich plasma assessed as ADP-induced platelet aggregation at 1 uM incubated for 4 min prior to ADP-induction measured for 5.5 min by turbidometric analysis (reference value: 54 to 88%); type: functional
# [5] = Antiaggregating activity in Homo sapiens (human) platelet rich plasma assessed as collagen-induced platelet aggregation at 1 uM incubated for 4 min prior to collagen-induction measured for 5.5 min by turbidometric analysis (reference value: 50 to 98%); type: functional
# Platelet [6] = experiment: Antiaggregating activity in Homo sapiens (human) platelet rich plasma assessed as inhibition of ristocetin-induced platelet aggregation at 3 uM incubated for 4 min prior to ristocetin-induction measured for 5.5 min by turbidometric analysis; type: functional, cell-free
# Platelet [7] = experiment: Antiaggregating activity in Homo sapiens (human) platelet rich plasma assessed as inhibition of adrenaline-induced platelet aggregation at 0.6 uM incubated for 4 min prior to adrenaline-induction measured for 5.5 min by turbidometric analysis; type: functional, cell-free
# Platelet [8] = experiment: Antiaggregating activity in Homo sapiens (human) platelet rich plasma assessed as inhibition of arachidonic acid-induced platelet aggregation at 1 uM incubated for 4 min prior to arachidonic acid-induction measured for 5.5 min by turbidometric analysis; type: functional, cell-free
# Platelet [9] = experiment: Antiaggregating activity in Homo sapiens (human) platelet rich plasma assessed as inhibition of adrenaline-induced platelet aggregation at 1 uM incubated for 4 min prior to adrenaline-induction measured for 5.5 min by turbidometric analysis; type: functional, cell-free
# Platelet [10] = experiment: Antiaggregating activity in Homo sapiens (human) platelet rich plasma assessed as inhibition of collagen-induced platelet aggregation at 3 uM incubated for 4 min prior to collagen-induction measured for 5.5 min by turbidometric analysis; type: functional, cell-free
# [11] = Antiaggregating activity in Homo sapiens (human) platelet rich plasma assessed as ADP-induced platelet aggregation at 0.6 uM incubated for 4 min prior to ADP-induction measured for 5.5 min by turbidometric analysis (reference value: 54 to 88%); type: functional
# Platelet [12] = experiment: Antiaggregating activity in Homo sapiens (human) platelet rich plasma assessed as inhibition of ADP-induced platelet aggregation at 3 uM incubated for 4 min prior to ADP-induction measured for 5.5 min by turbidometric analysis; type: functional, cell-free
# Platelet [13] = experiment: Antiaggregating activity in Homo sapiens (human) platelet rich plasma assessed as inhibition of adrenaline-induced platelet aggregation at 3 uM incubated for 4 min prior to adrenaline-induction measured for 5.5 min by turbidometric analysis; type: functional, cell-free
# Platelet [14] = experiment: Antiaggregating activity in Homo sapiens (human) platelet rich plasma assessed as inhibition of arachidonic acid-induced platelet aggregation at 3 uM incubated for 4 min prior to arachidonic acid-induction measured for 5.5 min by turbidometric analysis; type: functional, cell-free
# [15] = Antiaggregating activity in Homo sapiens (human) platelet rich plasma assessed as collagen-induced platelet aggregation at 0.6 uM incubated for 4 min prior to collagen-induction measured for 5.5 min by turbidometric analysis (reference value: 50 to 98%); type: functional
# Platelet [16] = experiment: Antiaggregating activity in Homo sapiens (human) platelet rich plasma assessed as inhibition of adrenaline-induced platelet aggregation at 0.5 uM incubated for 4 min prior to adrenaline-induction measured for 5.5 min by turbidometric analysis; type: functional, cell-free
# [17] = Antiaggregating activity in Homo sapiens (human) platelet rich plasma assessed as ADP-induced platelet aggregation at 0.25 uM incubated for 4 min prior to ADP-induction measured for 5.5 min by turbidometric analysis (reference value: 54 to 88%); type: functional
# [18] = Antiaggregating activity in Homo sapiens (human) platelet rich plasma assessed as arachidonic acid-induced platelet aggregation at 0.125 uM incubated for 4 min prior to arachidonic acid-induction measured for 5.5 min by turbidometric analysis (reference value: 55 to 100%); type: functional
# Platelet [19] = experiment: Antiaggregating activity in Homo sapiens (human) platelet rich plasma assessed as inhibition of adrenaline-induced platelet aggregation at 0.25 uM incubated for 4 min prior to adrenaline-induction measured for 5.5 min by turbidometric analysis; type: functional, cell-free
# [20] = Antiaggregating activity in Homo sapiens (human) platelet rich plasma assessed as disaggregation of ADP-induced platelet aggregation at 0.5 uM incubated for 4 min prior to ADP-induction measured for 5.5 min by turbidometric analysis relative to control; type: functional
# [21] = Antiaggregating activity in Homo sapiens (human) platelet rich plasma assessed as collagen-induced platelet aggregation at 0.125 uM incubated for 4 min prior to collagen-induction measured for 5.5 min by turbidometric analysis (reference value: 50 to 98%); type: functional
# Platelet [22] = experiment: Antiaggregating activity in Homo sapiens (human) platelet rich plasma assessed as inhibition of collagen-induced platelet aggregation at 0.5 uM incubated for 4 min prior to collagen-induction measured for 5.5 min by turbidometric analysis; type: functional, cell-free
# [23] = Antiaggregating activity in Homo sapiens (human) platelet rich plasma assessed as ristocetin-induced platelet aggregation at 0.125 uM incubated for 4 min prior to ristocetin-induction measured for 5.5 min by turbidometric analysis (reference value: 65 to 99%); type: functional
# Platelet [24] = experiment: Antiaggregating activity in Homo sapiens (human) platelet rich plasma assessed as inhibition of adrenaline-induced platelet aggregation at 0.125 uM incubated for 4 min prior to adrenaline-induction measured for 5.5 min by turbidometric analysis; type: functional, cell-free
# [25] = Antiaggregating activity in Homo sapiens (human) platelet rich plasma assessed as ristocetin-induced platelet aggregation at 0.25 uM incubated for 4 min prior to ristocetin-induction measured for 5.5 min by turbidometric analysis (reference value: 65 to 99%); type: functional
# Platelet [26] = experiment: Antiaggregating activity in Homo sapiens (human) platelet rich plasma assessed as inhibition of arachidonic acid-induced platelet aggregation at 0.25 uM incubated for 4 min prior to arachidonic acid-induction measured for 5.5 min by turbidometric analysis; type: functional, cell-free
# [27] = Antiaggregating activity in Homo sapiens (human) platelet rich plasma assessed as collagen-induced platelet aggregation at 0.25 uM incubated for 4 min prior to collagen-induction measured for 5.5 min by turbidometric analysis (reference value: 50 to 98%); type: functional
# Platelet [28] = experiment: Antiaggregating activity in Homo sapiens (human) platelet rich plasma assessed as inhibition of arachidonic acid-induced platelet aggregation at 0.5 uM incubated for 4 min prior to arachidonic acid-induction measured for 5.5 min by turbidometric analysis; type: functional
# Platelet [29] = experiment: Antiaggregating activity in Homo sapiens (human) platelet rich plasma assessed as inhibition of collagen-induced platelet aggregation at 1 uM incubated for 4 min prior to collagen-induction measured for 5.5 min by turbidometric analysis; type: functional, cell-free
# [30] = Antiaggregating activity in Homo sapiens (human) platelet rich plasma assessed as ristocetin-induced platelet aggregation at 0.5 uM incubated for 4 min prior to ristocetin-induction measured for 5.5 min by turbidometric analysis (reference value: 65 to 99%); type: functional
# [31] = Antiaggregating activity in Homo sapiens (human) platelet rich plasma assessed as ADP-induced platelet aggregation at 0.125 uM incubated for 4 min prior to ADP-induction measured for 5.5 min by turbidometric analysis (reference value: 54 to 88%); type: functional
# Platelet [32] = experiment: Antiaggregating activity in Homo sapiens (human) platelet rich plasma assessed as inhibition of ADP-induced platelet aggregation at 1 uM incubated for 4 min prior to ADP-induction measured for 5.5 min by turbidometric analysis; type: functional, cell-free
compound,measurement,setting,value
Cl.O=C(c1cccnc1)N1CCN(c2ncccn2)CC1,Activity,[1],76%
same,Activity,[2],20%
same,Activity,[3],74%
same,Activity,[4],13%
same,Activity,[5],72%
same,inhibition,Platelet [6],Active
same,inhibition,Platelet [7],Active
same,inhibition,Platelet [8],Active
same,inhibition,Platelet [9],Active
same,inhibition,Platelet [10],Active
same,Activity,[11],40%
same,inhibition,Platelet [12],Active
same,inhibition,Platelet [13],Active
same,inhibition,Platelet [14],Active
same,Activity,[15],58%
O=C(c1ccc[n+](Cc2ccc(Br)cc2)c1)N1CCN(c2ccccc2Cl)CC1.[Br-],inhibition,Platelet [16],Active
same,Activity,[17],74%
same,Activity,[3],69%
same,Activity,[18],68%
same,inhibition,Platelet [19],Active
same,inhibition,Platelet [8],Active
same,inhibition,Platelet [9],Active
same,Activity,[20],52%
same,Activity,[21],67%
same,inhibition,Platelet [22],Active
same,Activity,[23],84%
same,inhibition,Platelet [24],Active
same,Activity,[25],84%
same,inhibition,Platelet [26],Active
same,Activity,[27],77%
same,inhibition,Platelet [28],Active
same,inhibition,Platelet [29],Active
same,Activity,[30],78%
same,Activity,[31],84%
same,inhibition,Platelet [32],Active
